Positions of bridges follow the written chain, without caps; N, C: chain ends. Non-standard residues stand in square brackets, D forms with d. Residues, ends and D or L forms follow the SMILES beside them. *: point of attachment. hPhe(3-Cl-4-CF3) = N[C@@H](CCc1ccc(C(F)(F)F)c(Cl)c1)C(=O)O; NMePhe(4-CF3) = CN[C@@H](Cc1ccc(C(F)(F)F)cc1)C(=O)O; hPhe(4-CF3) = N[C@@H](CCc1ccc(C(F)(F)F)cc1)C(=O)O; NMePhe(4-Cl) = CN[C@@H](Cc1ccc(Cl)cc1)C(=O)O; NMePhe(4-Me) = CN[C@@H](Cc1ccc(C)cc1)C(=O)O; NMePhe(3-I) = CN[C@@H](Cc1cccc(I)c1)C(=O)O; NMePhe(4-F) = CN[C@@H](Cc1ccc(F)cc1)C(=O)O; Abu(4,4,4-F3) = N[C@@H](CC(F)(F)F)C(=O)O; NMeGly(cPent) = CN[C@H](C(=O)O)C1CCCC1; Phe(3-I) = N[C@@H](Cc1cccc(I)c1)C(=O)O; Ala(cPent) = N[C@@H](CC1CCCC1)C(=O)O; NMeCha = CN[C@@H](CC1CCCCC1)C(=O)O; Azetidine(3,3-F2) = FC1(F)CN(*)C1; NMeChg = CN[C@H](C(=O)O)C1CCCCC1; NMeF = CN[C@@H](Cc1ccccc1)C(=O)O; NMeI = CC[C@H](C)[C@H](NC)C(=O)O; NMeD = CN[C@@H](CC(=O)O)C(=O)O; NMeL = CN[C@@H](CC(C)C)C(=O)O; NMeV = CN[C@H](C(=O)O)C(C)C; d(β3hA) = C[C@@H](N)CC(=O)O; NMeA = CN[C@@H](C)C(=O)O; NMeAib = CNC(C)(C)C(=O)O; Piperidide = C1CCN(*)CC1; Pra = C#CC[C@H](N)C(=O)O; Pyrrolidide = C1CCN(*)C1; dNMeA = CN[C@H](C)C(=O)O; Ac5c = NC1(C(=O)O)CCCC1; Aze = O=C(O)[C@@H]1CCN1; CH2CMe2OH = CC(C)(O)C*; Sar = CNCC(=O)O
These compounds were tested against T1, Kras and SOS1 (biotin-tagged human Kras loaded with GDP, His-tagged human SOS1) (Homo sapiens, UniProt P01116, G12D) (assay: Protein-protein interaction inhibition between Kras and SOS1 (KrasGl2D-SOS PPI) using AlphaScreen). Conditions: AlphaScreen; biotin-tagged human Kras loaded with GDP, His-tagged human SOS1; read-out: KRAS G12D-SOS PPI IC50.
T1 construct: made in house; host or cells: E. coli (stated for Kras only)
Assay type: binding
In short: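 Read-out is acceptor-bead light at 520-620 nm, arising when 680 nm-irradiated nickel donor beads pass singlet oxygen to streptavidin acceptors. The bead pair links His-tagged SOS1 with biotin-tagged, GDP-bound Kras from E. coli.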

T1 sequence (P01116 1-188 isoform P01116-2 G12D): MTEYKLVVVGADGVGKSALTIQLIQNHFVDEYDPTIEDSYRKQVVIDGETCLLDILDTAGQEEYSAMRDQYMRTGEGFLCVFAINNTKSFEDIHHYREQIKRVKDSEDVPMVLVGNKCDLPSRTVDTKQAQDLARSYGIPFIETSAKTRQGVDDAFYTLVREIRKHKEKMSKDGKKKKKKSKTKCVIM

Compared with `CC[C@H](C)[C@@H]1NC(=O)[C@H](C)N(C)C(=O)C[C@@H](C(=O)N2CCCC2)NC(=O)[C@H](CC(C)C)N(C)C(=O)[C@H](Cc2ccccc2)N(C)C(=O)[C@H](COCC(C)(C)O)NC(=O)[C@H](CCc2ccc(C(F)(F)F)cc2)NC(=O)CN(C)C(=O)[C@H](Cc2ccc(Cl)cc2)N(C)C(=O)CN(C)C(=O)CN(C)C1=O` [Compound 502] ([NMeA]I[Sar][Sar][NMePhe(4-Cl)][Sar][hPhe(4-CF3)]S(CH2CMe2OH)[NMeF][NMeL]D-Pyrrolidide; lactam N-11), `C#CC[C@@H]1NC(=O)[C@H](Cc2cccc(I)c2)NC(=O)CN(C)C(=O)[C@H](Cc2ccc(C(F)(F)F)cc2)N(C)C(=O)[C@@H]2CCN2C(=O)[C@H](C)N(C)C(=O)[C@H]([C@@H](C)CC)NC(=O)[C@H](CC(C)C)N(C)C(=O)C[C@@H](C(=O)N2CCCCC2)N(C)C(=O)[C@H](CC(C)C)NC(=O)C(C)(C)N(C)C1=O` [Compound 1258] ([NMeL]I[NMeA][Aze][NMePhe(4-CF3)][Sar][Phe(3-I)][Pra][NMeAib]L[NMeD]-Piperidide; lactam N-11) is 1.8-fold lower in IC50: 0.047 µM for the first, 0.026 µM for the second. The second is the more potent here.

Compared with `CC[C@H](C)[C@@H]1NC(=O)[C@H](C)N(C)C(=O)C[C@@H](C(=O)N2CCCCC2)N(C)C(=O)[C@H](C(C)C)N(C)C(=O)[C@H](CC(F)(F)F)NC(=O)[C@H](CC(=O)N2CC(F)(F)C2)N(C)C(=O)[C@H](CCc2ccc(C(F)(F)F)c(Cl)c2)NC(=O)CN(C)C(=O)[C@H](CC2CCCCC2)N(C)C(=O)CN(C)C(=O)CN(C)C1=O` [Compound 679] ([NMeA]I[Sar][Sar][NMeCha][Sar][hPhe(3-Cl-4-CF3)][NMeD](Azetidine(3,3-F2))[Abu(4,4,4-F3)][NMeV][NMeD]-Piperidide; lactam N-11), `CC(C)C[C@H]1C(=O)N[C@@H](CC2CCCC2)C(=O)N(C)CC(=O)N(C)CC(=O)N(C)[C@@H](CC2CCCCC2)C(=O)N(C)CC(=O)N[C@@H](CCc2ccc(C(F)(F)F)c(Cl)c2)C(=O)N2CCC[C@H]2C(=O)NC2(CCCC2)C(=O)N(C)[C@@H](C(C)C)C(=O)N(C)[C@H](C(=O)N2CCCCC2)CC(=O)N1C` [Compound 627] ([NMeL][Ala(cPent)][Sar][Sar][NMeCha][Sar][hPhe(3-Cl-4-CF3)]P[Ac5c][NMeV][NMeD]-Piperidide; lactam N-11) is 2.8-fold lower in IC50: 0.037 µM for the first, 0.013 µM for the second.

Compared with `CC[C@H](C)[C@@H]1NC(=O)[C@H](CC(C)C)N(C)C(=O)C[C@@H](C)NC(=O)[C@H](C2CCCC2)N(C)C(=O)C2(CCCC2)NC(=O)[C@@H]2CCCN2C(=O)[C@H](CCc2ccc(C(F)(F)F)c(Cl)c2)NC(=O)[C@@H](C)N(C)C(=O)[C@H](Cc2ccc(C(F)(F)F)cc2)N(C)C(=O)CN(C)C(=O)CN(C)C1=O` [Compound 1542] (cyclo([Ac5c][NMeGly(cPent)][d(β3hA)][NMeL]I[Sar][Sar][NMePhe(4-CF3)][dNMeA][hPhe(3-Cl-4-CF3)]P)), `CC[C@H](C)[C@@H]1NC(=O)[C@H](CC(C)C)N(C)C(=O)C[C@@H](C)NC(=O)[C@H](C2CCCC2)N(C)C(=O)C2(CCCC2)NC(=O)[C@@H]2CCCN2C(=O)[C@H](CCc2ccc(C(F)(F)F)c(Cl)c2)NC(=O)[C@H]2CCCN2C(=O)[C@H](Cc2ccc(C)cc2)N(C)C(=O)CN(C)C(=O)CN(C)C1=O` [Compound 1487] (cyclo([Ac5c][NMeGly(cPent)][d(β3hA)][NMeL]I[Sar][Sar][NMePhe(4-Me)][dP][hPhe(3-Cl-4-CF3)]P)) is 2-fold higher in IC50: 0.17 µM for the first, 0.34 µM for the second.

Compared with `CC[C@H](C)[C@@H]1NC(=O)[C@H](CC(C)C)N(C)C(=O)C[C@@H](C(=O)N2CCCCC2)N(C)C(=O)[C@H](C2CCCCC2)N(C)C(=O)C2(CCCC2)NC(=O)[C@H](Cc2ccccc2)N(C)C(=O)[C@H](CCc2ccc(C(F)(F)F)c(Cl)c2)NC(=O)CN(C)C(=O)[C@H](CC2CCCCC2)N(C)C(=O)[C@@H]2CCN2C(=O)CN(C)C1=O` [Compound 527] ([NMeL]I[Sar][Aze][NMeCha][Sar][hPhe(3-Cl-4-CF3)][NMeF][Ac5c][NMeChg][NMeD]-Piperidide; lactam N-11), `CC[C@H](C)[C@@H]1NC(=O)[C@H](CC(C)C)N(C)C(=O)C[C@@H](C(=O)N(C)C)N(C)C(=O)[C@H]([C@@H](C)CC)N(C)C(=O)C2(CCCC2)NC(=O)[C@H](Cc2cccc(I)c2)N(C)C(=O)[C@H](CCc2ccc(C(F)(F)F)c(Cl)c2)NC(=O)CN(C)C(=O)[C@H](Cc2ccc(C)cc2)N(C)C(=O)[C@@H]2CCN2C(=O)[C@H](C)N(C)C1=O` [Compound 1910] ([NMeL]I[NMeA][Aze][NMePhe(4-Me)][Sar][hPhe(3-Cl-4-CF3)][NMePhe(3-I)][Ac5c][NMeI][NMeD]-NMe2; lactam N-11) is 1.6-fold higher in IC50: 0.038 µM for the first, 0.06 µM for the second. The first is the more potent here.

`CC[C@H](C)[C@@H]1NC(=O)[C@H](C)N(C)C(=O)C[C@@H](C)NC(=O)[C@H](C(C)C)N(C)C(=O)C2(CCCC2)NC(=O)[C@@H]2CCCN2C(=O)[C@H](CCc2ccc(C(F)(F)F)c(Cl)c2)NC(=O)[C@@H](C)N(C)C(=O)[C@H](Cc2ccc(F)cc2)N(C)C(=O)CN(C)C(=O)CN(C)C1=O` [Compound 1655] (cyclo([Ac5c][NMeV][d(β3hA)][NMeA]I[Sar][Sar][NMePhe(4-F)][dNMeA][hPhe(3-Cl-4-CF3)]P)) showed an IC50 of 0.085 µM.

From patent US12371454B2, “Cyclic peptide compound having Kras inhibitory action” (priority 2019, dated 2025)
